Reference: ChEMBL document CHEMBL1201862, “PubChem BioAssay data set” (2004)
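Where inhibition never reached the appropriate level, the endpoint shown equals the highest concentration tested. Otherwise, values were interpolated linearly from a five-concentration, 48-hour dose response in 96-well plates. GI50 = concentration required for 50% inhibition of growth.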 Activity calls are given as the source filed them. No stated cut-off is given here; in the data, active = GI50 up to about 1.1 µM and inactive = higher.

Legend:
Assay in all cases: inhibition of tumour cell growth, NCI panel, 48 h
[1] = test system: HOP-18
[2] = test system: IGROV-1
[3] = test system: OVCAR-3
[4] = test system: NCI-H460
[5] = test system: NCI-H522
[6] = test system: K562
[7] = test system: UACC-62
[8] = test system: SNB-78
[9] = test system: DMS-273
[10] = test system: A498
[11] = test system: NCI-H226
[12] = test system: M19-MEL
[13] = test system: SK-MEL-28
[14] = test system: LOX IMVI
[15] = test system: ACHN
[16] = test system: SK-OV-3
[17] = test system: CAKI-1
[18] = test system: HCT-15
[19] = test system: TK-10
[20] = test system: SF-268
[21] = test system: LXFL 529
[22] = test system: RXF 631
[23] = test system: SN12C
[24] = test system: U-251
[25] = test system: COLO 205
[26] = test system: MOLT-4
[27] = test system: RPMI-8226
[28] = test system: OVCAR-8
[29] = test system: KM-20L2
[30] = test system: DLD-1
[31] = test system: SNB-75
[32] = test system: SK-MEL-2
[33] = test system: SK-MEL-5
[34] = test system: UO-31
[35] = test system: CCRF-CEM
[36] = test system: SW-620
[37] = test system: M14
[38] = test system: HL-60
[39] = test system: NCI-H23
[40] = test system: EKVX
[41] = test system: DMS-114
[42] = test system: SNB-19
[43] = test system: HOP-92
[44] = test system: SF-295
[45] = test system: SF-539
[46] = test system: HT-29
[47] = test system: XF498
[48] = test system: Malme-3M
[49] = test system: OVCAR-5
[50] = test system: A549
[51] = test system: HCC 2998
[52] = test system: KM12
[53] = test system: 786-0
[54] = test system: HCT-116
[55] = test system: OVCAR-4
[56] = test system: HOP-62
[57] = test system: RXF 393
[58] = test system: UACC-257

Question: For COc1cc2c(cc1OC)C(Cl)C(c1ccc(Cl)cc1)=C2Cl (configuration not stated), which GI50 [1] is on record?
Answer: 15.9 µM (inactive)

Question: What about the GI50 [2] of the same compound?
Answer: 19.3 µM (inactive)

Question: What about the GI50 [3] of the same compound?
Answer: 16.5 µM (inactive)

Question: And the GI50 [4]?
Answer: 13.5 µM (inactive)

Question: And the GI50 [5]?
Answer: 12 µM (inactive)

Question: And the GI50 [6]?
Answer: 7.66 µM (inactive)

Question: And the GI50 [7]?
Answer: 12.5 µM (inactive)

Question: And the GI50 [8]?
Answer: 13 µM (inactive)

Question: What about the GI50 [9] of the same compound?
Answer: 17.7 µM (inactive)

Question: What about the GI50 [10] of the same compound?
Answer: 18.6 µM (inactive)

Question: And the GI50 [11]?
Answer: 22 µM (inactive)

Question: What about the GI50 [12] of the same compound?
Answer: 17.1 µM (inactive)

Question: What about the GI50 [13] of the same compound?
Answer: 19.1 µM (inactive)

Question: And the GI50 [14]?
Answer: 12.1 µM (inactive)

Question: What about the GI50 [15] of the same compound?
Answer: 15.2 µM (inactive)

Question: And the GI50 [16]?
Answer: 28.5 µM (inactive)

Question: What about the GI50 [17] of the same compound?
Answer: 17.3 µM (inactive)

Question: What about the GI50 [18] of the same compound?
Answer: 14.5 µM

Question: What about the GI50 [19] of the same compound?
Answer: 19.6 µM (inactive)

Question: What about the GI50 [20] of the same compound?
Answer: > 10 µM (inactive)

Question: And the GI50 [21]?
Answer: 4.23 µM (inactive)

Question: What about the GI50 [22] of the same compound?
Answer: 21.3 µM (inactive)

Question: What about the GI50 [23] of the same compound?
Answer: 17.5 µM (inactive)

Question: And the GI50 [24]?
Answer: 13.7 µM (inactive)

Question: What about the GI50 [25] of the same compound?
Answer: 16.8 µM (inactive)

Question: And the GI50 [26]?
Answer: 6.73 µM (inactive)

Question: And the GI50 [27]?
Answer: 9.02 µM (inactive)

Question: What about the GI50 [28] of the same compound?
Answer: 19.3 µM (inactive)

Question: What about the GI50 [29] of the same compound?
Answer: 18.1 µM (inactive)

Question: And the GI50 [30]?
Answer: 16.3 µM (inactive)

Question: And the GI50 [31]?
Answer: 19.1 µM (inactive)

Question: What about the GI50 [32] of the same compound?
Answer: 16 µM (inactive)

Question: And the GI50 [33]?
Answer: 14.4 µM (inactive)

Question: What about the GI50 [34] of the same compound?
Answer: 16.8 µM (inactive)

Question: And the GI50 [35]?
Answer: 6.15 µM (inactive)

Question: What about the GI50 [36] of the same compound?
Answer: 18.7 µM (inactive)

Question: What about the GI50 [37] of the same compound?
Answer: 15.4 µM (inactive)

Question: And the GI50 [38]?
Answer: 11.4 µM (inactive)

Question: What about the GI50 [39] of the same compound?
Answer: 14.2 µM (inactive)

Question: What about the GI50 [40] of the same compound?
Answer: 9.86 µM (inactive)

Question: And the GI50 [41]?
Answer: 11.9 µM (inactive)

Question: What about the GI50 [42] of the same compound?
Answer: 27.2 µM (inactive)

Question: What about the GI50 [43] of the same compound?
Answer: 12.6 µM (inactive)

Question: And the GI50 [44]?
Answer: 14.5 µM (inactive)

Question: What about the GI50 [45] of the same compound?
Answer: 17.1 µM (inactive)

Question: What about the GI50 [46] of the same compound?
Answer: 13.3 µM (inactive)

Question: And the GI50 [47]?
Answer: 3.45 µM (inactive)

Question: What about the GI50 [48] of the same compound?
Answer: 22 µM (inactive)

Question: How did the GI50 [1] turn out when Cn1c(=O)nc2n(-c3ccc(Br)cc3)c3ccccc3nc-2c1=O was run?
Answer: 5.6 µM (inactive)

Question: What about the GI50 [2] of the same compound?
Answer: 11.7 µM (inactive)

Question: And the GI50 [3]?
Answer: 2.48 µM (inactive)

Question: And the GI50 [4]?
Answer: 1.82 µM (inactive)

Question: And the GI50 [49]?
Answer: 13.6 µM (inactive)

Question: What about the GI50 [5] of the same compound?
Answer: 4.39 µM (inactive)

Question: What about the GI50 [6] of the same compound?
Answer: 5.43 µM (inactive)

Question: And the GI50 [7]?
Answer: 1.3 µM (inactive)

Question: And the GI50 [50]?
Answer: 2.02 µM (inactive)

Question: And the GI50 [8]?
Answer: 14 µM (inactive)

Question: And the GI50 [9]?
Answer: 1.88 µM (inactive)

Question: What about the GI50 [10] of the same compound?
Answer: 11.2 µM (inactive)

Question: What about the GI50 [11] of the same compound?
Answer: 11 µM (inactive)

Question: What about the GI50 [12] of the same compound?
Answer: 1.49 µM (inactive)

Question: And the GI50 [51]?
Answer: 2.21 µM (inactive)

Question: What about the GI50 [15] of the same compound?
Answer: 0.543 µM (active)

Question: What about the GI50 [16] of the same compound?
Answer: 27.8 µM (inactive)

Question: What about the GI50 [17] of the same compound?
Answer: 4.86 µM (inactive)

Question: What about the GI50 [18] of the same compound?
Answer: 3.55 µM

Question: What about the GI50 [19] of the same compound?
Answer: 8.93 µM (inactive)

Question: And the GI50 [20]?
Answer: 11.3 µM (inactive)

Question: What about the GI50 [21] of the same compound?
Answer: 12.2 µM (inactive)

Question: And the GI50 [22]?
Answer: 4.11 µM (inactive)

Question: And the GI50 [23]?
Answer: 4.97 µM (inactive)

Question: What about the GI50 [24] of the same compound?
Answer: 5.12 µM (inactive)

Question: And the GI50 [25]?
Answer: 2.64 µM (inactive)

Question: What about the GI50 [26] of the same compound?
Answer: 6.25 µM (inactive)

Question: And the GI50 [27]?
Answer: 3.16 µM (inactive)

Question: What about the GI50 [52] of the same compound?
Answer: 8.83 µM (inactive)

Question: What about the GI50 [28] of the same compound?
Answer: 3.38 µM (inactive)

Question: What about the GI50 [53] of the same compound?
Answer: 3.74 µM (inactive)

Question: And the GI50 [54]?
Answer: 4.11 µM (inactive)

Question: What about the GI50 [29] of the same compound?
Answer: 2.54 µM (inactive)

Question: And the GI50 [30]?
Answer: 4.05 µM (inactive)

Question: What about the GI50 [31] of the same compound?
Answer: 4.65 µM (inactive)

Question: What about the GI50 [32] of the same compound?
Answer: 9.33 µM (inactive)

Question: What about the GI50 [33] of the same compound?
Answer: 1.77 µM (inactive)

Question: And the GI50 [55]?
Answer: 3.51 µM (inactive)

Question: And the GI50 [34]?
Answer: 10.4 µM (inactive)

Question: And the GI50 [35]?
Answer: 3.81 µM (inactive)

Question: And the GI50 [36]?
Answer: 2.06 µM (inactive)

Question: And the GI50 [37]?
Answer: 3.75 µM (inactive)

Question: And the GI50 [56]?
Answer: 13.6 µM (inactive)

Question: And the GI50 [39]?
Answer: 0.783 µM (active)

Question: What about the GI50 [40] of the same compound?
Answer: 1.94 µM (inactive)

Question: And the GI50 [41]?
Answer: 2 µM (inactive)

Question: What about the GI50 [42] of the same compound?
Answer: 2.9 µM (inactive)

Question: What about the GI50 [57] of the same compound?
Answer: 12.3 µM (inactive)

Question: What about the GI50 [58] of the same compound?
Answer: 2.69 µM (inactive)

Question: And the GI50 [44]?
Answer: 3.66 µM (inactive)

Question: And the GI50 [45]?
Answer: 5.85 µM (inactive)

Question: And the GI50 [46]?
Answer: 2.29 µM (inactive)

Question: And the GI50 [47]?
Answer: 12.1 µM (inactive)

Question: What about the GI50 [48] of the same compound?
Answer: 3.61 µM (inactive)
